Laboratory results: US20260022142A1, “MACROCYCLIC IMMUNOMODULATORS” (Bristol-Myers Squibb Company, priority 2022, published 2026)
pIC50: −log10 of the molar value. Bridge positions count the residues as written; N and C are the ends. Square brackets hold non-standard residues; d marks the D form. Peptide text beside a SMILES is read from it. * marks the point of attachment. Phe(3,4-Cl2) = N[C@@H](Cc1ccc(Cl)c(Cl)c1)C(=O)O; Phe(3,4-F2) = N[C@@H](Cc1ccc(F)c(F)c1)C(=O)O; Bip = N[C@@H](Cc1ccc(-c2ccccc2)cc1)C(=O)O; Bta = N[C@@H](Cc1csc2ccccc12)C(=O)O; 4Pal = N[C@@H](Cc1ccncc1)C(=O)O; Cha = N[C@@H](CC1CCCCC1)C(=O)O; 3Abz = Nc1cccc(C(=O)O)c1; Carboxymethyl = O=C(O)C*; Orn = NCCC[C@H](N)C(=O)O; Aun = NCCCCCCCCCCC(=O)O; Dab = NCC[C@H](N)C(=O)O; Dap = NC[C@H](N)C(=O)O; AEEA = NCCOCCOCC(=O)O

Target: T1, PD-1/PD-L1 interaction (PE-labeled human PD-L1-Ig binding to Jurkat cell line over-expressing human PD-1) (Homo sapiens, UniProt Q15116)
T1 construct: expressed in transfected cells; host or cells: Jurkat
T1 sequence (Q15116 25-288): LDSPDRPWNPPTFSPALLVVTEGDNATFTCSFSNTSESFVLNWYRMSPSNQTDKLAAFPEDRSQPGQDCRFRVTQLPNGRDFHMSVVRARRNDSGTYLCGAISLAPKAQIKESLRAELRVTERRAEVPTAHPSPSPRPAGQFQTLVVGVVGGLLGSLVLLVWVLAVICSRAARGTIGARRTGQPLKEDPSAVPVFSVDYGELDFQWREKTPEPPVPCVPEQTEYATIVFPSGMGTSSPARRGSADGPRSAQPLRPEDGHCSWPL
Assay: Jurkat-PD-1 Cell Binding High-Content Screening Assay (CBA)
Type: cell-based
Conditions: Jurkat cell line over-expressing human PD-1; PE-labeled PD-L1-Ig 20 nM final; read-out: Jurkat hPD1-PDL1 IC50
Outline: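 Jurkat cells stably over-expressing human PD-1 were seeded in DMEM with 10% fetal calf serum and pre-incubated with compound for 2 h at 37° C. PE-labeled human PD-L1-Ig was then added at 20 nM final for 1 hour, after which cells were fixed with paraformaldehyde, Hoechst-stained and imaged by high-content microscopy.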

| SMILES | pIC50 |
| --- | --- |
| CC(C)C[C@@H]1NC(=O)[C@H](Cc2c[nH]c3ccccc23)NC(=O)[C@H](CC(=O)O)NC(=O)[C@H](Cc2ccncc2)NC(=O)[C@H](Cc2ccc(OCC(=O)O)cc2)NC(=O)CSC[C@@H](C(=O)Nc2cccc(C(=O)NCCCCCCCCCCC(=O)O)c2)NC(=O)[C@H](CCCN)NC(=O)[C@H](C(C)C)NC(=O)[C@H](CC2CCCCC2)NC(=O)[C@H](CCN)NC(=O)[C@@H](CC(C)C)NC(=O)[C@H](CCCN)NC(=O)[C@H](C(C)C)NC(=O)[C@H](Cc2ccc(-c3ccccc3)cc2)NC1=O [Compound 1312] ({CH2CO}-Y(Carboxymethyl)[4Pal]DWL[Bip]V[Orn][dL][Dab][Cha]V[Orn]C[3Abz][Aun]-OH; thioether N-14) | 6.98 |
| CC(C)C[C@H]1NC(=O)[C@H](CCCN)NC(=O)[C@H](Cc2ccc(O)cc2)NC(=O)[C@H](Cc2ccc(-c3ccccc3)cc2)NC(=O)[C@H](Cc2ccc(OCC(=O)O)cc2)NC(=O)[C@H](Cc2ccc(F)c(F)c2)NC(=O)[C@H](CC(=O)O)NC(=O)[C@H](Cc2ccc(OCC(=O)O)cc2)NC(=O)[C@H](CN)NC(=O)CSC[C@@H](C(=O)N[C@@H](CCN)C(=O)NCCOCCOCC(=O)NCCCCCCCCCCC(=O)O)NC(=O)[C@H](CCCN)NC(=O)[C@H](C(C)C)NC(=O)[C@H](CC2CCCCC2)NC(=O)[C@H](CCN)NC1=O [Compound 1313] ({CH2CO}-[Dap]Y(Carboxymethyl)D[Phe(3,4-F2)]Y(Carboxymethyl)[Bip]Y[Orn][dL][Dab][Cha]V[Orn]C[Dab][AEEA][Aun]-OH; thioether N-14) | 6.96 |

Results, then the molecule that gave them:

| pIC50 | SMILES |
| --- | --- |
| 7.20 | CC(C)C[C@H]1NC(=O)[C@H](CCCN)NC(=O)[C@H](Cc2ccc(O)cc2)NC(=O)[C@H](Cc2ccc(-c3ccccc3)cc2)NC(=O)[C@H](Cc2ccc(OCC(=O)O)cc2)NC(=O)[C@H](Cc2csc3ccccc23)NC(=O)[C@H](CC(=O)O)NC(=O)[C@H](Cc2ccc(OCC(=O)O)cc2)NC(=O)[C@H](CN)NC(=O)CSC[C@@H](C(=O)N[C@@H](CCN)C(=O)NCCOCCOCC(=O)NCCCCCCCCCCC(=O)O)NC(=O)[C@H](CCCN)NC(=O)[C@H](C(C)C)NC(=O)[C@H](CC2CCCCC2)NC(=O)[C@H](CCN)NC1=O [Compound 1309] ({CH2CO}-[Dap]Y(Carboxymethyl)D[Bta]Y(Carboxymethyl)[Bip]Y[Orn][dL][Dab][Cha]V[Orn]C[Dab][AEEA][Aun]-OH; thioether N-14) |
| 7.19 | CC(C)C[C@H]1NC(=O)[C@H](CCCN)NC(=O)[C@H](Cc2ccc(O)cc2)NC(=O)[C@H](Cc2ccc(-c3ccccc3)cc2)NC(=O)[C@H](C(C)C)NC(=O)[C@H](Cc2ccc(Cl)c(Cl)c2)NC(=O)[C@H](CC(=O)O)NC(=O)[C@H](Cc2ccc(OCC(=O)O)cc2)NC(=O)[C@H](CN)NC(=O)CSC[C@@H](C(=O)N[C@@H](CCN)C(=O)NCCOCCOCC(=O)NCCCCCCCCCCC(=O)O)NC(=O)[C@H](CCCN)NC(=O)[C@H](C(C)C)NC(=O)[C@H](CC2CCCCC2)NC(=O)[C@H](CCN)NC1=O [Compound 1310] ({CH2CO}-[Dap]Y(Carboxymethyl)D[Phe(3,4-Cl2)]V[Bip]Y[Orn][dL][Dab][Cha]V[Orn]C[Dab][AEEA][Aun]-OH; thioether N-14) |
| 6.99 | CC(C)C[C@H]1NC(=O)[C@H](CCCN)NC(=O)[C@H](Cc2ccc(O)cc2)NC(=O)[C@H](Cc2ccc(-c3ccccc3)cc2)NC(=O)[C@H](Cc2ccc(OCC(=O)O)cc2)NC(=O)[C@H](Cc2ccc(O)cc2)NC(=O)[C@H](CC(=O)O)NC(=O)[C@H](Cc2ccc(OCC(=O)O)cc2)NC(=O)[C@H](CN)NC(=O)CSC[C@@H](C(=O)N[C@@H](CCN)C(=O)NCCOCCOCC(=O)NCCCCCCCCCCC(=O)O)NC(=O)[C@H](CCCN)NC(=O)[C@H](C(C)C)NC(=O)[C@H](CC2CCCCC2)NC(=O)[C@H](CCN)NC1=O [Compound 1311] ({CH2CO}-[Dap]Y(Carboxymethyl)DYY(Carboxymethyl)[Bip]Y[Orn][dL][Dab][Cha]V[Orn]C[Dab][AEEA][Aun]-OH; thioether N-14) |
